Assay results as given in PubChem BioAssay AID248 (DTP/NCI, 2004).
Several values for one entry are separate records, joined by “and”; a condition that tells them apart may be missing. Identical values can stand only once. Toxic doses and inconclusive results are not listed.

Test system: L1210 leukemia ip in BDF1 mice, survival T/C
Test: NCI In Vivo Anticancer Drug Screen. Data for tumor model L1210 Leukemia (intraperitoneal) in B6D2F1 (BDF1) mice
Conditions: endpoint: mean survival time, higher = longer survival
In short: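 In this screen, tumor-bearing mice given compound are compared to those given vehicle, and their survival values are reported as a treated-to-control quotient.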

[1] = dose: 100.0 mg/kg/injection, schedule: Q01DX009 (ip), vehicle: Klucel (hydroxypropylcellulose) (HPC)
[2] = dose: 200.0 mg/kg/injection, schedule: Q01DX009 (ip), vehicle: Klucel (hydroxypropylcellulose) (HPC)
[3] = dose: 400.0 mg/kg/injection, schedule: Q01DX009 (ip), vehicle: Klucel (hydroxypropylcellulose) (HPC)
[4] = dose: 100.0 mg/kg/injection, schedule: Q04DX003 (ip), vehicle: Klucel (hydroxypropylcellulose) (HPC)
[5] = dose: 200.0 mg/kg/injection, schedule: Q04DX003 (ip), vehicle: Klucel (hydroxypropylcellulose) (HPC)
[6] = dose: 400.0 mg/kg/injection, schedule: Q04DX003 (ip), vehicle: Klucel (hydroxypropylcellulose) (HPC)
[7] = dose: 100.0 mg/kg/injection, schedule: Q04DX003 (ip), vehicle: saline with Tween-80
[8] = dose: 200.0 mg/kg/injection, schedule: Q04DX003 (ip), vehicle: saline with Tween-80
[9] = dose: 400.0 mg/kg/injection, schedule: Q04DX003 (ip), vehicle: saline with Tween-80
[10] = dose: 100.0 mg/kg/injection, schedule: Q01DX001 (ip), vehicle: saline
[11] = dose: 200.0 mg/kg/injection, schedule: Q01DX001 (ip), vehicle: saline
[12] = dose: 400.0 mg/kg/injection, schedule: Q01DX001 (ip), vehicle: saline
[13] = dose: 100.0 mg/kg/injection, schedule: Q01DX009 (ip), vehicle: saline
[14] = dose: 200.0 mg/kg/injection, schedule: Q01DX009 (ip), vehicle: saline
[15] = dose: 400.0 mg/kg/injection, schedule: Q01DX009 (ip), vehicle: saline
[16] = dose: 100.0 mg/kg/injection, schedule: Q04DX003 (ip), vehicle: saline
[17] = dose: 200.0 mg/kg/injection, schedule: Q04DX003 (ip), vehicle: saline
[18] = dose: 400.0 mg/kg/injection, schedule: Q04DX003 (ip), vehicle: saline

For `CCOC(=O)C1C(C)NC(C)C(C(=O)OCC)C1c1ccccc1Cl` (stereo not drawn), the T/C [1] was 97 % of control, the T/C [2] was 98 % of control and the T/C [3] was 93 % of control.

In the case of `Cn1c(=O)c2c(ncn2CCSCC2=NS(=O)(=O)c3cc(S(N)(=O)=O)c(C(F)(F)F)cc3N2)n(C)c1=O`, the T/C (dose: 100.0 mg/kg/injection, schedule: Q04DX002 (ip), vehicle: saline) is reported as 97 % of control, the T/C (dose: 200.0 mg/kg/injection, schedule: Q04DX002 (ip), vehicle: saline) is reported as 94 % of control and the T/C (dose: 400.0 mg/kg/injection, schedule: Q04DX002 (ip), vehicle: saline) is reported as 94 % of control.

`COC(=O)C1=CCC(C2(C)CO2)CC1` (stereo not drawn) was tested, and the T/C [4] was 104 % of control, the T/C [5] was 109 % of control and the T/C [6] was 104 % of control.

In the case of `O=C1C(CCSc2ccccc2)C(=O)N(c2ccccc2)C1c1ccccc1` (stereo not drawn), the T/C [1] is reported as 93 % of control, the T/C [2] is reported as 94 % of control and the T/C [3] is reported as 95 % of control.

`CCN(C(=O)Nc1cccc(C(F)(F)F)c1)c1ccccc1C(F)(F)F` was tested, and the T/C [4] was 98 % of control, the T/C [5] was 91 % of control and the T/C [6] was 93 % of control.

`CN(C)C(=O)Sc1cccc([N+](=O)[O-])c1` was tested, and the T/C [7] was 109 % of control, the T/C [8] was 111 % of control and the T/C [9] was 103 % of control.

With `CC(=O)c1cccc(NC(=O)N(C)Cc2ccccc2)c1` the T/C [1] was 109 % of control, the T/C [2] was 100 % of control and the T/C [3] was 112 % of control.

`CCOC(=O)C12CCC(=O)CC1(O)CCC1(C2)OCCCO1` (stereo not drawn) was tested, and the T/C (dose: 100.0 mg/kg/injection, schedule: Q## X003 (ip), vehicle: saline) was 98 % of control, the T/C (dose: 200.0 mg/kg/injection, schedule: Q## X003 (ip), vehicle: saline) was 104 % of control and the T/C (dose: 400.0 mg/kg/injection, schedule: Q## X003 (ip), vehicle: saline) was 102 % of control.

`CCN(CC)C(=O)c1cccc(N)c1` was tested, and the T/C [10] was 98 % of control, the T/C [11] was 98 % of control and the T/C [12] was 95 % of control.

In the case of `O=C(CCCl)N1CCN(C(=O)CCCl)CC1`, the T/C [1] is reported as 106 % of control, the T/C [13] is reported as 103 % of control and the T/C [4] is reported as 100 % of control. For the same molecule, the T/C (dose: 117.32 mg/kg/injection, schedule: Q01DX009 (ip), vehicle: saline) was 119 % of control, the T/C (dose: 148.0 mg/kg/injection, schedule: Q01DX Z (ip), vehicle: methylcellulose (MC)) was 100 % of control and the T/C (dose: 176.0 mg/kg/injection, schedule: Q01DX009 (ip), vehicle: saline) was 100 % of control. For the same molecule, the T/C [2] was 108 % of control, the T/C [14] was 119 % of control and the T/C [5] was 99 % of control. The T/C (dose: 222.0 mg/kg/injection, schedule: Q01DX Z (ip), vehicle: methylcellulose (MC)) was 104 % of control, the T/C (dose: 264.0 mg/kg/injection, schedule: Q01DX009 (ip), vehicle: saline) was 116 % of control and the T/C (dose: 333.0 mg/kg/injection, schedule: Q01DX Z (ip), vehicle: methylcellulose (MC)) was 119 % of control. The T/C [3] was 122 % of control, the T/C [15] was 161 % of control and 167 % of control and the T/C [6] was 121 % of control. For the same molecule, the T/C (dose: 500.0 mg/kg/injection, schedule: Q01DX Z (ip), vehicle: methylcellulose (MC)) was 97 % of control and the T/C (dose: 800.0 mg/kg/injection, schedule: Q01DX009 (ip), vehicle: Klucel (hydroxypropylcellulose) (HPC)) was 155 % of control.

For `COc1cc(C)c2ccccc2n1`, the T/C (dose: 100.0 mg/kg/injection, schedule: Q01DX001 (ip), vehicle: saline with Tween-80) was 100 % of control, the T/C [10] was 104 % of control and the T/C (dose: 200.0 mg/kg/injection, schedule: Q01DX001 (ip), vehicle: saline with Tween-80) was 102 % of control. The T/C [11] was 103 % of control, the T/C (dose: 400.0 mg/kg/injection, schedule: Q01DX001 (ip), vehicle: saline with Tween-80) was 94 % of control and the T/C [12] was 98 % of control.

In the case of `CCOC(=O)C(C(=O)OCC)C(CC)c1ccccc1` (stereo not drawn), the T/C (dose: 100.0 mg/kg/injection, schedule: Q01DX009 (ip), vehicle: saline with Tween-80) is reported as 101 % of control, the T/C (dose: 100.0 mg/kg/injection, schedule: Q04DX002 (ip), vehicle: saline with Tween-80) is reported as 103 % of control and the T/C (dose: 200.0 mg/kg/injection, schedule: Q01DX009 (ip), vehicle: saline with Tween-80) is reported as 92 % of control. The T/C (dose: 200.0 mg/kg/injection, schedule: Q04DX002 (ip), vehicle: saline with Tween-80) was 100 % of control, the T/C (dose: 400.0 mg/kg/injection, schedule: Q01DX009 (ip), vehicle: saline with Tween-80) was 95 % of control and the T/C (dose: 400.0 mg/kg/injection, schedule: Q04DX002 (ip), vehicle: saline with Tween-80) was 95 % of control.

`COc1cc2cc(-c3cc(OC)c(OC)c(OC)c3)c3c(c2cc1OC)CNC3=O` was tested, and the T/C [13] was 90 % of control, the T/C [16] was 93 % of control and the T/C [14] was 90 % of control. For the same molecule, the T/C [17] was 101 % of control and the T/C [18] was 101 % of control.

For `CSc1ncc(CO)c(Nc2ccccc2Cl)n1`, the T/C [4] was 103 % of control, the T/C [5] was 103 % of control and the T/C [6] was 95 % of control.

`CCOC(=O)CCCc1ccc(N/N=N/c2nc[nH]c2C(N)=O)cc1` was tested, and the T/C (dose: 25.0 mg/kg/injection, schedule: Q01DX Z (ip), vehicle: carboxymethylcellulose (CMC)) was 94 % of control, the T/C (dose: 50.0 mg/kg/injection, schedule: Q01DX Z (ip), vehicle: carboxymethylcellulose (CMC)) was 88 % of control and the T/C (dose: 75.0 mg/kg/injection, schedule: Q01DX Z (ip), vehicle: carboxymethylcellulose (CMC)) was 88 % of control. For the same molecule, the T/C (dose: 100.0 mg/kg/injection, schedule: Q01DX Z (ip), vehicle: carboxymethylcellulose (CMC)) was 103 % of control and the T/C (dose: 200.0 mg/kg/injection, schedule: Q01DX Z (ip), vehicle: carboxymethylcellulose (CMC)) was 88 % of control.

For `CCCCCCCCCCCCCCCCCC(=O)C(C(=O)OCC)C(=O)OCC`, the T/C (dose: 100.0 mg/kg/injection, schedule: Q01DX001 (ip), vehicle: other) was 93 % of control, the T/C (dose: 200.0 mg/kg/injection, schedule: Q01DX001 (ip), vehicle: other) was 88 % of control and the T/C (dose: 400.0 mg/kg/injection, schedule: Q01DX001 (ip), vehicle: other) was 90 % of control.

With `Brc1ccccc1C=C1c2ccccc2-c2ccccc21` the T/C [7] was 102 % of control, the T/C [8] was 101 % of control and the T/C [9] was 96 % of control.

For `Cc1ccc(NC(=O)N(CCI)N=O)cc1`, the T/C (dose: 17.0 mg/kg/injection, schedule: Q01DX015 (ip), vehicle: carboxymethylcellulose (CMC)) was 110 % of control, the T/C (dose: 58.0 mg/kg/injection, schedule: Q01DX015 (ip), vehicle: carboxymethylcellulose (CMC)) was 161 % of control and the T/C (dose: 88.0 mg/kg/injection, schedule: Q01DX015 (ip), vehicle: carboxymethylcellulose (CMC)) was 157 % of control. The T/C (dose: 133.0 mg/kg/injection, schedule: Q01DX015 (ip), vehicle: carboxymethylcellulose (CMC)) was 92 % of control, the T/C (dose: 177.0 mg/kg/injection, schedule: Q01DX001 (ip), vehicle: carboxymethylcellulose (CMC)) was 121 % of control and the T/C (dose: 200.0 mg/kg/injection, schedule: Q01DX015 (ip), vehicle: carboxymethylcellulose (CMC)) was 111 % of control and 113 % of control. For the same molecule, the T/C (dose: 400.0 mg/kg/injection, schedule: Q01DX001 (ip), vehicle: carboxymethylcellulose (CMC)) was 159 % of control.

In the case of `O=C1C=C(Cl)C(=O)c2ccccc21`, the T/C (dose: 9.38 mg/kg/injection, schedule: Q01DX001 (ip), vehicle: steriod suspending solution) is reported as 91 % of control.

In the case of `Nc1cc(S(N)(=O)=O)ccc1SSc1ccc(S(N)(=O)=O)cc1N`, the T/C [13] is reported as 105 % of control, the T/C [16] is reported as 96 % of control and the T/C [14] is reported as 99 % of control. For the same molecule, the T/C [17] was 94 % of control, the T/C [15] was 110 % of control and the T/C [18] was 89 % of control.

With `COC(=O)c1ccc(C)c(-n2c(-c3ccccc3)nnc2-c2ccccc2)c1` the T/C (dose: 50.0 mg/kg/injection, schedule: Q01DX009 (ip), vehicle: Klucel (hydroxypropylcellulose) (HPC)) was 102 % of control, the T/C [1] was 93 % of control and the T/C [4] was 95 % of control. For the same molecule, the T/C [2] was 95 % of control, the T/C [5] was 92 % of control and the T/C [6] was 97 % of control.

In the case of `Oc1cccc2ccc3ccc4ccccc4c3c12`, the T/C (dose: 87.5 mg/kg/injection, schedule: Q04DX003 (ip), vehicle: Klucel (hydroxypropylcellulose) (HPC)) is reported as 93 % of control, the T/C (dose: 175.0 mg/kg/injection, schedule: Q04DX003 (ip), vehicle: Klucel (hydroxypropylcellulose) (HPC)) is reported as 93 % of control and the T/C (dose: 350.0 mg/kg/injection, schedule: Q04DX003 (ip), vehicle: Klucel (hydroxypropylcellulose) (HPC)) is reported as 95 % of control.
